{"source": "paper PMC5218480", "about": "(PLoS ONE, 2017)", "system": "MV-4-11 cells", "test": "Gene expression microarray analysis (Affymetrix PrimeView) and GSEA", "format": "cell-based, human", "parameters": "RFU PODN (11730768_x_at) / Fold change /veh PODN (11730768_x_at) / RFU LINC00158 (11744669_a_at) / Fold change /veh LINC00158 (11744669_a_at) / RFU DUSP10 (11751237_a_at) / Fold change /veh DUSP10 (11751237_a_at) / RFU ID3 (11757404_x_at) / Fold change /veh ID3 (11757404_x_at) / RFU PLEKHG5 (11737974_s_at) / Fold change /veh PLEKHG5 (11737974_s_at) / RFU LRRC4B (11730491_at) / Fold change /veh LRRC4B (11730491_at) / RFU GIMAP4 (11747438_a_at) / Fold change /veh GIMAP4 (11747438_a_at) / RFU KRT8 (11758183_x_at) / Fold change /veh KRT8 (11758183_x_at) / RFU CNN1 (11734310_a_at) / Fold change /veh CNN1 (11734310_a_at) / RFU VPS37D (11726825_at) / Fold change /veh VPS37D (11726825_at) / RFU C10orf10 (11716522_x_at) / Fold change /veh C10orf10 (11716522_x_at) / RFU KIR2DL2 /// KIR2DL4 /// KIR2DL5A /// KIR2DL5B /// KIR2DS1 /// KIR2DS2 /// KIR2DS3 /// KIR2DS4 /// KIR3DL3 /// KIR3DL3 /// KIR3DS1 (11738374_at) / Fold change /veh KIR2DL2 /// KIR2DL4 /// KIR2DL5A /// KIR2DL5B /// KIR2DS1 /// KIR2DS2 /// KIR2DS3 /// KIR2DS4 /// KIR3DL3 /// KIR3DL3 /// KIR3DS1 (11738374_at) / RFU C1QL1 (11718748_at) / Fold change /veh C1QL1 (11718748_at) / RFU TMPRSS4 (11747572_a_at) / Fold change /veh TMPRSS4 (11747572_a_at) / RFU HAMP (11756126_x_at) / Fold change /veh HAMP (11756126_x_at) / RFU RNFT2 (11725882_a_at) / Fold change /veh RNFT2 (11725882_a_at) / RFU NR4A2 (11747474_a_at) / Fold change /veh NR4A2 (11747474_a_at) / RFU ABCC12 (11746883_a_at) / Fold change /veh ABCC12 (11746883_a_at) / RFU TMEM136 (11760407_x_at) / Fold change /veh TMEM136 (11760407_x_at) / RFU CLDN22 /// WWC2 (11732394_at) / Fold change /veh CLDN22 /// WWC2 (11732394_at) / RFU HLA-DPB1 (11760878_x_at) / Fold change /veh HLA-DPB1 (11760878_x_at) / RFU SPINT1 (11716480_a_at) / Fold change /veh SPINT1 (11716480_a_at) / RFU GAP43 (11754022_s_at) / Fold change /veh GAP43 (11754022_s_at) / RFU A4GNT (11735810_at) / Fold change /veh A4GNT (11735810_at) / RFU PRB3 (11715151_x_at) / Fold change /veh PRB3 (11715151_x_at) / RFU TUBB4B (11761932_at) / Fold change /veh TUBB4B (11761932_at) / RFU CAPN14 (11732068_a_at) / Fold change /veh CAPN14 (11732068_a_at) / RFU TMCC2 (11721928_a_at) / Fold change /veh TMCC2 (11721928_a_at) / RFU IRGQ (11745062_a_at) / Fold change /veh IRGQ (11745062_a_at) / RFU FAM174B (11720279_a_at) / Fold change /veh FAM174B (11720279_a_at) / RFU TMPRSS4 (11748680_a_at) / Fold change /veh TMPRSS4 (11748680_a_at) / RFU FAM212B (11763350_a_at) / Fold change /veh FAM212B (11763350_a_at) / RFU PLEKHG5 (11743358_a_at) / Fold change /veh PLEKHG5 (11743358_a_at) / RFU ZSCAN30 (11745921_a_at) / Fold change /veh ZSCAN30 (11745921_a_at) / RFU CMKLR1 (11741424_a_at) / Fold change /veh CMKLR1 (11741424_a_at) / RFU LOC101060620 /// MAPK8IP1 (11723275_at) / Fold change /veh LOC101060620 /// MAPK8IP1 (11723275_at) / RFU SPTSSB (11747773_x_at) / Fold change /veh SPTSSB (11747773_x_at) / RFU PRSS12 (11739890_at) / Fold change /veh PRSS12 (11739890_at) / RFU BIN1 (11741810_x_at) / Fold change /veh BIN1 (11741810_x_at) / RFU WNT11 (11732464_a_at) / Fold change /veh WNT11 (11732464_a_at) / RFU C10orf10 (11716521_a_at) / Fold change /veh C10orf10 (11716521_a_at) / RFU C5orf56 (11738089_at) / Fold change /veh C5orf56 (11738089_at) / RFU CYB561 (11721691_x_at) / Fold change /veh CYB561 (11721691_x_at) / RFU ANKRD19P (11752326_a_at) / Fold change /veh ANKRD19P (11752326_a_at) / RFU OR2T12 /// OR2T33 /// OR2T8 (11738714_s_at) / Fold change /veh OR2T12 /// OR2T33 /// OR2T8 (11738714_s_at) / RFU VCAN (11748164_a_at) / Fold change /veh VCAN (11748164_a_at) / RFU JSRP1 (11732532_at) / Fold change /veh JSRP1 (11732532_at) / RFU KRTAP10-11 (11738290_x_at) / Fold change /veh KRTAP10-11 (11738290_x_at) / RFU MYO3A (11730013_a_at) / Fold change /veh MYO3A (11730013_a_at) / RFU EBF3 (11725865_a_at) / Fold change /veh EBF3 (11725865_a_at) / RFU CAMK2N1 (11719241_x_at) / Fold change /veh CAMK2N1 (11719241_x_at) / RFU C5orf56 (11738088_a_at) / Fold change /veh C5orf56 (11738088_a_at) / RFU OLFML3 (11715873_a_at) / Fold change /veh OLFML3 (11715873_a_at) / RFU LOC100653217 /// NTM (11731650_a_at) / Fold change /veh LOC100653217 /// NTM (11731650_a_at) / RFU MAPK11 (11762145_a_at) / Fold change /veh MAPK11 (11762145_a_at) / RFU FIZ1 (11724087_x_at) / Fold change /veh FIZ1 (11724087_x_at) / RFU OASL (11726364_x_at) / Fold change /veh OASL (11726364_x_at) / RFU SOX15 (11748057_x_at) / Fold change /veh SOX15 (11748057_x_at) / RFU CD79A (11719716_a_at) / Fold change /veh CD79A (11719716_a_at) / RFU HIST1H1D (11736915_at) / Fold change /veh HIST1H1D (11736915_at) / RFU CASKIN2 (11723855_a_at) / Fold change /veh CASKIN2 (11723855_a_at) / RFU LOC730098 (11760151_x_at) / Fold change /veh LOC730098 (11760151_x_at) / RFU OR4N2 (11742367_at) / Fold change /veh OR4N2 (11742367_at) / RFU PRRT2 (11749266_a_at) / Fold change /veh PRRT2 (11749266_a_at) / RFU SNX32 (11753110_a_at) / Fold change /veh SNX32 (11753110_a_at) / RFU CDHR5 (11726645_a_at) / Fold change /veh CDHR5 (11726645_a_at) / RFU RCAN1 (11760418_a_at) / Fold change /veh RCAN1 (11760418_a_at) / RFU FAM167A (11723789_a_at) / Fold change /veh FAM167A (11723789_a_at) / RFU FAM26E (11764081_at) / Fold change /veh FAM26E (11764081_at) / RFU ISYNA1 (11749810_s_at) / Fold change /veh ISYNA1 (11749810_s_at) / RFU ACY1 (11761880_at) / Fold change /veh ACY1 (11761880_at) / RFU 11764098_at / Fold change /veh 11764098_at / RFU SAMD14 (11745864_x_at) / Fold change /veh SAMD14 (11745864_x_at) / RFU NPB (11741838_a_at) / Fold change /veh NPB (11741838_a_at) / RFU TMPRSS6 (11731388_a_at) / Fold change /veh TMPRSS6 (11731388_a_at) / RFU KRTAP10-2 (11738614_at) / Fold change /veh KRTAP10-2 (11738614_at) / RFU ARHGAP8 /// PRR5-ARHGAP8 (11727945_x_at) / Fold change /veh ARHGAP8 /// PRR5-ARHGAP8 (11727945_x_at) / RFU KRTAP5-7 /// NADSYN1 (11734609_at) / Fold change /veh KRTAP5-7 /// NADSYN1 (11734609_at) / RFU RASL12 (11751679_a_at) / Fold change /veh RASL12 (11751679_a_at) / RFU CDKN2B (11736163_a_at) / Fold change /veh CDKN2B (11736163_a_at) / RFU PRF1 (11729649_at) / Fold change /veh PRF1 (11729649_at) / RFU, ZNF638 /// ZNF638-IT1 / Fold change vs veh, ZNF638 /// ZNF638-IT1 / RFU, PANK3 / Fold change vs veh, PANK3 / RFU, SH3YL1 / Fold change vs veh, SH3YL1 / RFU, ZEB2 / Fold change vs veh, ZEB2 / RFU, NRIP1 / Fold change vs veh, NRIP1 / RFU, PTTG1IP / Fold change vs veh, PTTG1IP / RFU, CAPN2 / Fold change vs veh, CAPN2 / RFU, MED14 / Fold change vs veh, MED14 / RFU, SNORA58 / Fold change vs veh, SNORA58 / RFU, C1orf63 / Fold change vs veh, C1orf63 / RFU, LRRFIP1 / Fold change vs veh, LRRFIP1 / RFU, NDUFAF7 / Fold change vs veh, NDUFAF7 / RFU, SLC12A2 / Fold change vs veh, SLC12A2 / RFU, IBTK / Fold change vs veh, IBTK / RFU, ESF1 / Fold change vs veh, ESF1 / Fold change vs veh, TMEM50B / RFU, TAOK1 / Fold change vs veh, TAOK1 / RFU, ACBD3 / Fold change vs veh, ACBD3 / RFU, TMA16 / Fold change vs veh, TMA16 / RFU, RWDD3 / Fold change vs veh, RWDD3 / RFU, BCAT1 / Fold change vs veh, BCAT1 / RFU, EDEM3 / Fold change vs veh, EDEM3 / RFU, TMEM33 / Fold change vs veh, TMEM33 / RFU, WDR75 / Fold change vs veh, WDR75 / RFU, AHCTF1 / Fold change vs veh, AHCTF1 / RFU, TFRC / Fold change vs veh, TFRC / RFU, ZDHHC17 / Fold change vs veh, ZDHHC17 / RFU, NOM1 / Fold change vs veh, NOM1 / RFU, ARL8B / Fold change vs veh, ARL8B / RFU, ZBTB11 / Fold change vs veh, ZBTB11 / RFU, TAMM41 / Fold change vs veh, TAMM41 / RFU, KIAA1704 /// LOC100996395 / Fold change vs veh, KIAA1704 /// LOC100996395 / RFU, ING1 / Fold change vs veh, ING1 / RFU, TRMT61B / Fold change vs veh, TRMT61B / RFU, FUBP3 / Fold change vs veh, FUBP3 / RFU, TP53 / Fold change vs veh, TP53 / RFU, TNKS2 / Fold change vs veh, TNKS2 / RFU, ZFP14 / Fold change vs veh, ZFP14 / RFU, ACTR2 / Fold change vs veh, ACTR2 / RFU, PPP3R1 / Fold change vs veh, PPP3R1 / RFU, PIK3R1 / Fold change vs veh, PIK3R1 / RFU, HNRNPA1 / Fold change vs veh, HNRNPA1 / RFU, RNF170 / Fold change vs veh, RNF170 / RFU, ZNF28 / Fold change vs veh, ZNF28 / RFU, RNGTT / Fold change vs veh, RNGTT / RFU, OGT / Fold change vs veh, OGT / RFU, BRD1 / Fold change vs veh, BRD1 / RFU, MARS / Fold change vs veh, MARS / RFU, ZNF655 / Fold change vs veh, ZNF655 / RFU, FAHD1 / Fold change vs veh, FAHD1 / RFU, BDP1 / Fold change vs veh, BDP1 / RFU, LRRCC1 / Fold change vs veh, LRRCC1 / RFU, ARID1A / Fold change vs veh, ARID1A / RFU, ZNF146 / Fold change vs veh, ZNF146 / RFU, ZNF330 / Fold change vs veh, ZNF330 / RFU, GPN3 / Fold change vs veh, GPN3 / RFU, C9orf123 / Fold change vs veh, C9orf123 / RFU, N4BP2L2 / Fold change vs veh, N4BP2L2 / RFU, ARFIP1 / Fold change vs veh, ARFIP1 / RFU, FAM179B / Fold change vs veh, FAM179B / RFU, BCL10 / Fold change vs veh, BCL10 / RFU, UHRF1BP1L / Fold change vs veh, UHRF1BP1L / RFU, BET1 / Fold change vs veh, BET1 / RFU, CNOT2 / Fold change vs veh, CNOT2 / RFU, ZNF268 / Fold change vs veh, ZNF268 / Fold change vs veh, ZNF507 / RFU, DGCR2 / Fold change vs veh, DGCR2 / RFU, WDSUB1 / Fold change vs veh, WDSUB1 / Fold change vs veh, HSP90B1 /// MIR3652 / RFU, ADSS / Fold change vs veh, ADSS / RFU, GK / Fold change vs veh, GK / RFU, ZNF148 / Fold change vs veh, ZNF148 / RFU, TAF9 / Fold change vs veh, TAF9 / RFU, SLC1A5 / Fold change vs veh, SLC1A5 / RFU, SLMO2 / Fold change vs veh, SLMO2 / RFU, ABCC4 / Fold change vs veh, ABCC4 / RFU, LOC101060439 /// RAP1B / Fold change vs veh, LOC101060439 /// RAP1B / RFU, RFX7 / Fold change vs veh, RFX7 / RFU, GTPBP10 / Fold change vs veh, GTPBP10 / RFU, CNEP1R1 / Fold change vs veh, CNEP1R1 / RFU, BIVM-ERCC5 /// ERCC5 / Fold change vs veh, BIVM-ERCC5 /// ERCC5 / RFU, ILF3 / Fold change vs veh, ILF3 / RFU 11762660_at / Fold change /veh 11762660_at / RFU VCAN (11757783_s_at) / Fold change /veh VCAN (11757783_s_at) / RFU DDX43 (11728927_at) / Fold change /veh DDX43 (11728927_at) / RFU KRT8 (11758188_x_at) / Fold change /veh KRT8 (11758188_x_at) / RFU NKD1 (11759106_at) / Fold change /veh NKD1 (11759106_at) / RFU SRD5A1 (11742802_a_at) / Fold change /veh SRD5A1 (11742802_a_at) / RFU TPSAB1 /// TPSB2 (11721975_s_at) / Fold change /veh TPSAB1 /// TPSB2 (11721975_s_at) / RFU GSTM3 (11746129_a_at) / Fold change /veh GSTM3 (11746129_a_at) / RFU IL23R (11737362_x_at) / Fold change /veh IL23R (11737362_x_at) / RFU TMEM51 (11727254_a_at) / Fold change /veh TMEM51 (11727254_a_at) / RFU PIWIL2 (11732686_x_at) / Fold change /veh PIWIL2 (11732686_x_at) / RFU ORM1 (11744905_x_at) / Fold change /veh ORM1 (11744905_x_at) / RFU CCDC152 (11743942_at) / Fold change /veh CCDC152 (11743942_at) / RFU ECM1 (11717891_a_at) / Fold change /veh ECM1 (11717891_a_at) / RFU IL23R (11748794_a_at) / Fold change /veh IL23R (11748794_a_at) / RFU TNFAIP8L3 (11732012_x_at) / Fold change /veh TNFAIP8L3 (11732012_x_at) / RFU MBOAT4 (11741988_at) / Fold change /veh MBOAT4 (11741988_at) / RFU 11764193_at / Fold change /veh 11764193_at / RFU TMEM53 (11763286_at) / Fold change /veh TMEM53 (11763286_at) / RFU MAGEB2 (11727129_at) / Fold change /veh MAGEB2 (11727129_at) / RFU TMEM200A (11744735_a_at) / Fold change /veh TMEM200A (11744735_a_at) / RFU CCDC152 (11751479_a_at) / Fold change /veh CCDC152 (11751479_a_at) / RFU FAM211A (11726209_a_at) / Fold change /veh FAM211A (11726209_a_at) / RFU RGS16 (11746705_a_at) / Fold change /veh RGS16 (11746705_a_at) / RFU VCAN (11755009_s_at) / Fold change /veh VCAN (11755009_s_at) / RFU RHOB (11743442_s_at) / Fold change /veh RHOB (11743442_s_at) / RFU RGS16 (11720943_a_at) / Fold change /veh RGS16 (11720943_a_at) / RFU RGS16 (11720944_at) / Fold change /veh RGS16 (11720944_at) / RFU, VPS4B / Fold change vs veh, VPS4B / RFU, CREB1 / Fold change vs veh, CREB1 / RFU, DNAJC13 / Fold change vs veh, DNAJC13 / RFU, GNAQ / Fold change vs veh, GNAQ / RFU, CDK5R1 / Fold change vs veh, CDK5R1 / RFU, ZRANB3 / Fold change vs veh, ZRANB3 / RFU, CUL4A / Fold change vs veh, CUL4A / RFU, CCNY / Fold change vs veh, CCNY / RFU, UFL1 / Fold change vs veh, UFL1 / RFU, COG3 / Fold change vs veh, COG3 / RFU, DIAPH2 / Fold change vs veh, DIAPH2 / RFU, SKA2 / Fold change vs veh, SKA2 / RFU, AFF3 / Fold change vs veh, AFF3 / RFU, LMF1 / Fold change vs veh, LMF1 / RFU, IPO11 / Fold change vs veh, IPO11 / RFU, DFFB / Fold change vs veh, DFFB / RFU, FOXP1 / Fold change vs veh, FOXP1 / RFU, CARD8 / Fold change vs veh, CARD8 / RFU, STRN3 / Fold change vs veh, STRN3 / RFU, ADK / Fold change vs veh, ADK / RFU, RASSF2 / Fold change vs veh, RASSF2 / RFU, WIPF1 / Fold change vs veh, WIPF1 / RFU, LARP1B / Fold change vs veh, LARP1B / RFU, RASA1 / Fold change vs veh, RASA1 / RFU, RB1 / Fold change vs veh, RB1 / RFU, PPFIA1 / Fold change vs veh, PPFIA1 / RFU, MAT2A / Fold change vs veh, MAT2A / RFU, CCT5 / Fold change vs veh, CCT5 / RFU, WDR92 / Fold change vs veh, WDR92 / RFU, CUX1 / Fold change vs veh, CUX1 / RFU, TTC7A / Fold change vs veh, TTC7A / RFU, TMEM135 / Fold change vs veh, TMEM135 / RFU, DEPTOR / Fold change vs veh, DEPTOR / RFU, CPM / Fold change vs veh, CPM / RFU, DNAJB6 / Fold change vs veh, DNAJB6 / RFU, CACNA2D3 / Fold change vs veh, CACNA2D3 / RFU, DTX4 / Fold change vs veh, DTX4 / RFU, TFCP2 / Fold change vs veh, TFCP2 / RFU, GMCL1 /// GMCL1P1 / Fold change vs veh, GMCL1 /// GMCL1P1 / RFU, AEBP2 / Fold change vs veh, AEBP2 / RFU, SNHG1 /// SNORD22 /// SNORD25 /// SNORD26 /// SNORD27 /// SNORD28 /// SNORD29 /// SNORD31 / Fold change vs veh, SNHG1 /// SNORD22 /// SNORD25 /// SNORD26 /// SNORD27 /// SNORD28 /// SNORD29 /// SNORD31 / Fold change (Aza/veh), C12orf56 (ProbeSet 11735607_a_at) / Fold change (ACY-1035/veh), C12orf56 (ProbeSet 11735607_a_at) / Fold change (Aza/veh), FGFR1OP (ProbeSet 11751329_s_at) / Fold change (ACY-1035/veh), FGFR1OP (ProbeSet 11751329_s_at) / Fold change (Aza/veh), VPS36 (ProbeSet 11739960_a_at) / Fold change (ACY-1035/veh), VPS36 (ProbeSet 11739960_a_at) / RFU SYPL1 (11715823_x_at) / Fold change /veh SYPL1 (11715823_x_at) / RFU IGFBP7 (11715501_s_at) / Fold change /veh IGFBP7 (11715501_s_at) / RFU REEP3 (11722064_at) / Fold change /veh REEP3 (11722064_at) / RFU IGLL1 (11728026_x_at) / Fold change /veh IGLL1 (11728026_x_at): dose or concentration left out as unconfirmed", "conditions": "ProbeSet 11739263_x_at; LIST D"}
{"compound": "Nc1ncn([C@@H]2O[C@H](CO)[C@@H](O)[C@H]2O)c(=O)n1", "note": "[azacitidine]", "values": [{"measurement": "Fold change vs veh, VPS4B", "result": 0.80}]}
